# Laboratory results as given in patent US6573236B2, “Inhibiting MOG-antibody binding” (The Regents of the University of California, priority 1998, dated 2003).
# Ends that are not written are not given here.
# Experiments:
# [1] = test system: antigen-specific autoantibody in situ (marmoset EAE lesions); assay: Immunogold-labeled peptide staining of marmoset EAE CNS tissue sections; assay type: binding, C. jacchus marmoset; settings: conjugates 1:100, silver enhancement
# Experimental: Immunogold labeling was performed on ultra-thin sections of frozen or fixed tissues. Gold conjugates were prepared of (1) three MOG peptides (amino acids [aa] 1-20, aa 21-40, and aa 41-60 of human MOG (SEQ ID NO:3)) with known encephalitogenic activity in marmosets; (2) one MOG peptide that has been shown not to be encephalitogenic in marmosets (aa 101-120); (3) one human myelin basic protein (MBP) peptide (aa 82-101) that is encephalitogenic in marmosets and immunodominant in humans with the DR2 haplotype; and, as a control, (4) a peptide of mouse serum albumin (MSA; aa 560-574). Peptides having human MOG subsequences were synthesized using standard Fmoc chemistry and purified (>95%) by HPLC (Research Genetics Inc., Huntsville, Ala.): MOG 1-20, MOG 21-40, […], MBP 82-101, and MSA 560-574. The gold conjugates were synthesized by using monosulfo-N-hydroxy succinimide-Nanogold labeling reagent (particle diameter, 1.4 nm), according to the manufacturer's instructions (Nanoprobes, Stonybrook, N.Y.), followed by extensive dialysis to remove unreacted peptide. Immunoreactivity was detected on 1-μm epoxy sections of marmoset spinal cord tissue and active MS lesions. For this, sections were etched with sodium ethoxide, equilibrated in PO4-buffered saline containing 0.05% Triton X-100, and blocked with 10% normal rabbit serum. Sections were incubated with peptide-immunogold conjugates (1:100 in buffer) for 2 hours at room temperature. After washing, detection was performed by using silver enhancement (Nanoprobes). Sections were counterstained with toluidine blue. […]
# (§1) As controls, sections were either pretreated with unlabeled encephalitogenic MOG peptides or MBP to block the reaction, reacted with unlabeled nonencephalitogenic MOG peptide (aa 101-120) before application of the gold conjugates, or treated with gold-labeled irrelevant antigens (histone or MSA) or irrelevant IgG (anti-goat). The specificity of the labeling with the gold conjugates of encephalitogenic MOG peptides was also assessed in western blots where the MOG protein was first reacted with immune marmoset serum. […]
# [2] = test system: MOG- and MBP-specific autoantibodies in MS lesions; assay: Immunogold-labeled peptide staining of human MS CNS tissue; assay type: binding; settings: acute human MS lesions
# Experimental: Immunogold labeling was performed on ultra-thin sections of frozen or fixed tissues. Gold conjugates were prepared of (1) three MOG peptides (amino acids [aa] 1-20, aa 21-40, and aa 41-60 of human MOG (SEQ ID NO:3)) with known encephalitogenic activity in marmosets; (2) one MOG peptide that has been shown not to be encephalitogenic in marmosets (aa 101-120); (3) one human myelin basic protein (MBP) peptide (aa 82-101) that is encephalitogenic in marmosets and immunodominant in humans with the DR2 haplotype; and, as a control, (4) a peptide of mouse serum albumin (MSA; aa 560-574). […] Immunoreactivity was detected on 1-μm epoxy sections of marmoset spinal cord tissue and active MS lesions. […]
# as §1
Substance,labeling of vesiculated myelin networks by gold conjugate [1],staining of vesiculated myelin networks by gold conjugate [2]
"MBP (aa 82-101): Nanogold conjugate of human myelin basic protein peptide aa 82-101 (PADPGSRPHLIRLFSRDAPG; also: Nanogold conjugate, attachment not given here)",failed to label,to a lesser extent
"MSA, aa 560-574: Nanogold conjugate of control peptide of mouse serum albumin aa 560-574 (KPKATAEQLKTVMDD; also: Nanogold conjugate, attachment not given here)",failed to label,not
"gold-conjugated MOG peptide (aa 21-40): Nanogold conjugate of human MOG peptide aa 21-40 (ELPCRISPGKNATGMEVGWY; also: Nanogold conjugate, attachment not given here)",Positive reactivity,–
